We go through three compounds from patent US10647687B2, “Spiropyrazine derivatives as inhibitors of non-apoptotic regulated cell-death” (Helmholtz Zentrum München Deutsches Forschungszentrum für …, priority 2014, dated 2020).

Data set [1] relates to C57BL/6 mice. The experiment in a line: Liver ischemia-reperfusion injury model (Example C.1). Format: in vivo, mouse. The settings on record: single i.p. dose 10 mg/Kg. The procedure: FIG. 2: Efficacy of a compound disclosed herein in an animal model of liver IRI. […] The “Sham” bar represents the data from control animals that were treated to the same protocol but without atraumatic clipping. Errors shown are SEM. Significant differences are seen between IRI+vehicle compared to IRI+Cmpd, as well as between IRI+vehicle compared to Sham+vehicle.
Briefly, to test such utility of compounds disclosed herein, ischemia is induced in the liver of 6-8 week old C57BL/6 mice (Charles River) by midline laparotomy whereby the blood supply to the left and median lobes of the liver is interrupted via atraumatic clipping for 90 min, followed by reperfusion for a period of 24 h. After reperfusion, but prior to final abdominal closure, animals are treated with a single i.p. dose of the compound to be tested (10 mg/Kg), or with vehicle (DMSO) as negative control. […] The “Sham” bar represents the data from control animals that were treated to the same protocol but without atraumatic clipping.

In data set [2] the test system is C57BL/6 mice. In words: Kidney ischemia-reperfusion injury model (Example C.2). The class given is in vivo, mouse. Particulars: dose of both 1 and 10 mg/kg, compared to vehicle control, FIG. 3. As for the experimental part: FIG. 3: Efficacy of a compound disclosed herein in an animal model of kidney IRI.
Briefly, to test such utility of compounds disclosed herein, ischemia is induced in the kidney of 6-8 week old C57BL/6 mice by interruption of the blood supply to the kidney via reversible clipping of the Arteria renalis for 30 min, followed by reperfusion for a period of 24 h. Mice are treated with compound (or vehicle control) generally as described in Example C.1 at 1 hour prior to and four hours after abdomal closure and once daily over a period of 14 days. Markers to be investigated for IRI of kidney include […] creatinine levels in the serum along with histopathological analysis.

A further data set has as its system SH-SY5Y cells. In words: Specificity: TNF-alpha-induced apoptosis in SH-SY5Y cells (Example B.3). Format: cell-based, human. The settings on record: compound 1 μM, TNF-alpha 10 ng/mL, FIG. 1. As for the experimental part:
SH-SY5Y cells were propagated and seeded in 96-well plates, together with compound N-1, N-2, N-10 of Table 1-N (FIG. 1A), compound O/S-6 or O/S-3 of Table 1-O/S (FIG. 1B), or compound C-12, C-91, or C-205 of Table 1-C (FIG. 1C) (each 1 μM) and TNF-alpha was added (final concentration: 10 ng/mL) to induce apoptosis. The apoptosis and pan-caspase inhibitor z-vad (final concentration: 50 μM) and the necroptosis inhibitor Necrostatin-1 (Nec-1; final concentration: 5 μM) were used for comparison. Control wells were established with vehicle only (DMSO), with and without treatment with TNF-alpha to induce apoptosis. Cells were incubated, and cell survival was detected and quantified. Percentage cell survival after TNF-alpha-induced apoptosis is shown (error bars indicate standard deviation (SD)).
Briefly, SH-SY5Y cells were propagated and seeded in 96-well plates, together with the compound to be tested (1 μM), generally as described in Example B.1, except they were seeded at 1,000 cell/well and instead of BSO, TNF-alpha (Invitrogen) was added to a final concentration of 10 ng/mL to induce apoptosis. The apoptosis and pan-caspase inhibitor Z-VAD-fink (Enzo Life Science; final concentration 50 μM) and the necroptosis inhibitor Necrostatin-1 (Nec-1; Enzo Life Science; final concentration 5 μM) were used for comparison. Control wells were established with vehicle only (DMSO), with and without treatment with TNF-alpha to induce apoptosis. Cells were incubated, and cell survival was detected and quantified as described in Example B.1.

For data set [3], the system named is C57BL/6 mice. The experiment in a line: Traumatic brain injury, controlled cortical impact model (Example C.5). The class given is in vivo, mouse. Particulars: compared to vehicle control, 24 h after CCI, FIG. 4. As for the experimental part:
FIG. 4: Efficiency of a compound disclosed herein in an animal model of traumatic brain injury.
Briefly, to test such utility of compounds disclosed herein, male C57BL/6 mice are anesthetised prior to the induction of trauma. Core body temperature is maintained at 37° C. using a feedback-controlled heating pad connected to a rectal probe. To induce trauma, a craniotomy is prepared over the right parietal cortex. Controlled cortical impact (CCI) is delivered perpendicular to the surface of the brain with a custom-made CCI applicator for mice using the following parameters: 8 m/s velocity, 3 mm diameter, 1 mm brain displacement and 150 ms duration. Following CCI, the skull is closed by affixing the removed bone flap using veterinary-grade tissue glue (Vetbond, 3M, St. Paul, Minn.). Compounds are administered at 1 mg/Kg or 10 mg/Kg (dissolved in 40% PEG) 15 minutes after TBI induction and 40% PEG is included as vehicle control. The animals are recovered from anesthesia in an incubator heated to 33° C. Animals are sacrificed and the brain is removed 24 h after CCI and immediately frozen on crushed dry ice and stored at −80° C. […] The sections are stained with cresyl violet for quantifying the area of contused brain, and contusion volume is calculated and the effect of the compounds tested observed following analysis of such data.

Data set [4] relates to mouse hippocampal cell line (Ht22). The experiment in a line: Inhibition of glutamate-induced non-apoptotic cell death (Ht22/GLU, Example B.2). The class given is cell-based. The settings on record: HT-22, glutamate-induced non-apoptotic cell death, Ht22 cells, read-out: Ht22/GLU. The text has this:
Glutamate toxicity is conferred on cells from the mouse hippocampal cell line (Ht22) by inhibition of the cysteine/glutamate antiporter, System xc-, leading to impaired cysteine uptake and subsequent GSH depletion. This model is frequently used for mimicking glutathione depletion following oxidative stress in stroke, brain trauma and other neurodegenerative diseases and cellular conditions following ischemia (for example: van Leyen et al, J. Neurochem. 92:824-30 (2005)).
Compounds disclosed herein were evaluated for their ability to promote cell survival upon administration of a lethal dose of glutamate (GLU) to the cell-culture medium.
Briefly, Ht22cells (ATCC or Invitrogen) were propagated DMEM supplemented with 10% FBS/1% Penicillin-Streptomycin, and then seeded onto 96-well plates at a concentration of 2,000 cells/well in 100 μL of MEDIA, simultaneously with glutamate (Sigma Aldrich) to a final concentration of 5 mM, together with increasing concentrations of the compound to be tested (0.5 pM to 100 μM), and the plates incubated at 37° C./5% CO2 for 72 hours. Compound dilutions were prepared from 10 mM stocks dissolved in DMSO and diluted in media. Cells treated with glutamate alone were used as negative control and alpha-tocopherol (Sigma Aldrich) was used as positive control. Compound concentrations were tested in triplicate. After incubation, cell survival was detected and quantified as described in Example B.1.

The subject of data set [5] is human neuroblastoma cell line SH-SY5Y. In words: Inhibition of BSO-induced non-apoptotic cell death (SH-SY5Y/BSO, Example B.1). The class given is cell-based. Particulars: BSO-induced non-apoptotic cell death, SH-SY5Y cells, 50 μM BSO, 72 hours. An excerpt: L-Buthionine sulfoximine (BSO) is a well-known glutathione (GSH) depletory, which inhibits gamma-glutamyl-cysteine-synthetase, the enzyme catalyzing the rate-limiting step in GSH biosynthesis. The human neuroblastoma cell line SH-SY5Y is sensitive to BSO-induced intracellular glutathione depletion, which causes high levels of reactive oxygen species (ROS) and cellular stress mimicking cellular conditions following ischemia (cf., e.g., Yamada et al., Neurochem. Int. 59:1003-9 (2011)).
Compounds disclosed herein were evaluated for their ability to promote cell survival upon administration of a lethal dose of BSO to cell-culture medium. […] After incubation, cell survival was detected using the live/dead cell assay AquaBluer™ (MultiTarget Pharmaceuticals) and quantified using a fluorescence plate reader (excitation filter: 530-560 nm/emission filter: 590 nm) (SpectraMax M4; Molecular Devices). Fluorescence data so obtained was normalised to the percentage of surviving cells and IC50 values calculated using the GraphPad Prism (GraphPad Software, Inc) software package.

Another data set concerns Pfa1 cells. In words: Inhibition of non-apoptotic cell death after tamoxifen-induced GPx4 knockout (Pfa1/TAM, Example B.4). The settings on record: Mus musculus, tamoxifen-induced GPx4 knockout, Pfa1 cells. The class given is cell-based, mouse. An excerpt:
To combat high intracellular ROS levels, mammalian cells have evolved an intricate network of ROS scavenging in cells, in which the thioredoxin and glutathione (GSH) dependent systems prevail. […] Knockout of GPx4 in neurons causes massive neurodegeneration in cortical, cerebellar and hippocampal neurons underscoring the high relevance of ROS-induced cell death signaling in the brain. Briefly, immortalised fibroblasts from these mice were made to contain tamoxifen-inducible CreERT2, which catalyzes the functional ablation of both copies of GPx4 and resulting in a complete knockout of GPx4, a massive ROS burst, and cell death in cell culture. These cells (Pfa1 cells) were used to characterize compounds disclosed herein, whereby tamoxifen (TAM) was given on day 0 along with the compound under test, and 72 hours later cell survival was evaluated using AlamarBlue.

Data set [6] can be described thus: Cellular toxicity, Pfa1 cells without TAM (Example B.5). The class given is cell-based. Particulars: mouse, cellular toxicity, read-out: TC50 (the source's name). The text has this: An estimate of the toxicity for compounds disclosed herein was obtained by using the same assay as described in Example B.4, but without the addition of TAM. […] Such TC50 values obtained for certain compounds disclosed herein, together with an approximate therapeutic window (estimated by dividing each TC50 by the corresponding IC50 determined from example B.4) are shown in Table 3 and Table 4.

Turning to `Clc1cccc(CNC2=Nc3ccccc3NC23CCNCC3)c1` [N-2], the “serum marker for liver cell damage GPT” value in the data set on C57BL/6 mice [1] (liver IRI, compared to vehicle control, FIG. 2A) is recorded as “significant reduction”. Besides, the “serum marker for liver cell damage GOT” value with C57BL/6 mice [1] (liver IRI, compared to vehicle control, FIG. 2B) is recorded as “significant reduction”. For the same compound, the “serum GPT and GOT, IRI+Cmpd compared to Sham+vehicle” value with C57BL/6 mice [1] (FIG. 2) is “No significant difference”. Further, the “survival of mice suffering kidney-ischemic reperfusion injury” value with C57BL/6 mice [2] was “Improved survival”. For the same compound, the “Percentage cell survival after TNF-alpha-induced apoptosis” value in the data set with SH-SY5Y cells was “Non-inhibition of apoptotic cell-death”. For the same compound, in the data set on C57BL/6 mice [3], the “contusion volume in the brains of mice following traumatic brain injury” value is recorded as “trend of a (non-significant) positive effect”.

On to `Clc1cccc(CNC2=Nc3ccccc3NC23CCCNCC3)c1` (centres unmarked) [N-185], for which the IC50 is less than 500 nM in data set [4], less than 50 nM in data set [5] and less than 200 nM in the data set with Pfa1 cells. The CC50 in data set [6] lay within 1000 to 2000 nM.

On to `O=S1(=O)CCC2(CC1)Nc1ccccc1N=C2NCc1cccc(Cl)c1` [O/S-370], for which the IC50 was less than 5000 nM in data set [4], less than 1000 nM in data set [5] and less than 2000 nM in the data set with Pfa1 cells. The CC50 in data set [6] was 50000 to 100000 nM.
